# US20040014740A1 (priority 2002, published 2004)
# System: binding site of a radiolabelled ligand (assay of U.S. Patent No. 5,859,188)
# Assay: binding assay as described in U.S. Patent No. 5,859,188: percent displacement of a radiolabelled ligand
# Settings: for Testing Result % inhibition at indicated concentration, Test 1 / Testing Result % inhibition at indicated concentration: percent displacement of radiolabelled ligand; for Testing Result % inhibition at indicated concentration, Test 2: concentration not given for Test 2
# Method: Selected compounds were evaluated for their anti-parasitic activity in a binding assay as described in U.S. Patent No. 5,859,188 (Geary, et.al., 1999). Results of the evaluations are given in the following Table wherein % inhibition means percent displacement of a radiolabelled ligand as described.
SMILES,"Testing Result % inhibition at indicated concentration, Test 1 (25 uM)","Testing Result % inhibition at indicated concentration, Test 2",Testing Result % inhibition at indicated concentration (25 uM),other results
"CCOC(=O)c1cc(-c2ccsc2)sc1NC(=O)CN1CCCCC1 [aa, ethyl 5-[(piperidin-1-ylacetyl)amino]-2,3′-bithiophene-4-carboxylate]",46-66%,37-43%,,
CCOC(=O)C1=C(NC(=O)CN2CCOCC2)SC2CCCCCC12 (stereo not shown) [Compound D],,,38% at 25 uM,
"CCOC(=O)c1c(-c2ccc(Br)cc2)csc1NC(=O)CN1CCCCC1 [z, ethyl 4-(4-bromophenyl)-2-[(piperidin-1-ylacetyl)amino]thiophene-3-carboxylate]",44-55%,37-43%,,
"CCOC(=O)c1c(NC(=O)CN2CCCCC2)sc2c1CC(C)(CC)OC2 (stereo not shown) [s, ethyl 5-ethyl-5-methyl-2-[(piperidin-1-ylacetyl)amino]-4,7-dihydro-5H-thieno[2,3-c]pyran-3-carboxylate]",93-100%,69-79%,,
"CCOC(=O)c1c(NC(=O)CN2CCCCC2)sc2c1CCN(C(=O)OCC)C2 [p, diethyl 2-[(piperidin-1-ylacetyl)amino]-4,7-dihydrothieno[2,3-c]pyridine-3,6(5H)-dicarboxylate]",50-52%,33-49%,,
"CCOC(=O)c1c(NC(=O)CN2CCCCC2)sc2c1CCC(c1ccccc1)C2 (stereo not shown) [m, ethyl 6-phenyl-2-[(piperidin-1-ylacetyl)amino]-4,5,6,7-tetrahydro-1-benzothiophene-3-carboxylate]",,,36% at 25 uM,
"CCOC(=O)c1c(NC(=O)CN2CCCCCC2)sc2c1CCCC2 [h, ethyl 2-[(azepan-1-ylacetyl)amino]-4,5,6,7-tetrahydro-1-benzothiophene-3-carboxylate]",,,46% at 25 uM,
"CCOC(=O)c1c(NC(=O)CN2CCCCC2)sc2c1CC(C)CC2 (stereo not shown) [q, ethyl 5-methyl-2-[(piperidin-1-ylacetyl)amino]-4,5,6,7-tetrahydro-1-benzothiophene-3-carboxylate]",65-74%,15-22%,,
"CCOC(=O)c1c(NC(=O)CN2CCCCC2)sc2c1CCN(Cc1ccccc1)C2 [u, ethyl 6-benzyl-2-[(piperidin-1-ylacetyl)amino]-4,5,6,7-tetrahydrothieno[2,3-c]pyridine-3-carboxylate]",48-51%,0-14%,,
CCOC(=O)c1c(NC(=O)CN2CCCCC2)sc2c1CCCC2 [Compound B],,,,Testing Result % inhibition at indicated concentration (1 uM): 59% at 1 uM
"CCOC(=O)c1c(-c2ccsc2)csc1NC(=O)CN1CCCCC1 [bb, ethyl 5-[(piperidin-1-ylacetyl)amino]-3,3′-bithiophene-4-carboxylate]",40-63%,18-38%,,
"CCOC(=O)c1c(-c2ccncc2)csc1NC(=O)CN1CCCCC1 [v, ethyl 2-[(piperidin-1-ylacetyl)amino]-4-pyridin-4-ylthiophene-3-carboxylate]",15-43%,14-17%,,
"COC(=O)c1c(NC(=O)CN2CCCCC2)sc2c1CCCC2 [x, methyl 2-[(piperidin-1-ylacetyl)amino]-4,5,6,7-tetrahydro-1-benzothiophene-3-carboxylate]",55-70%,41-55%,,
"CCOC(=O)c1c(NC(=O)CN2CCCC2)sc2c1CCC2 [j, ethyl 2-[(pyrrolidin-1-ylacetyl)amino]-5,6-dihydro-4H-cyclopenta[b]thiophene-3-carboxylate]",,,83-88% at 25 uM,
"CCOC(=O)c1c(C)csc1NC(=O)CN1CCCCC1 [w, ethyl 4-methyl-2-[(piperidin-1-ylacetyl)amino]thiophene-3-carboxylate]",58-70%,39-47%,,
"CCOC(=O)c1c(NC(=O)CN2CCCCC2)sc2c1CCS2 [ee, ethyl 2-[(piperidin-1-ylacetyl)amino]-4,5-dihydrothieno[2,3-b]thiophene-3-carboxylate]",,,61-72% at 25 uM,

SMILES,"Testing Result % inhibition at indicated concentration, Test 1 (25 uM)","Testing Result % inhibition at indicated concentration, Test 2",Testing Result % inhibition at indicated concentration (25 uM),other results
"CCOC(=O)c1c(NC(=O)CN2CCCCC2)sc2c1CCC2 [A, ethyl 2-{[2-(1-piperidinyl)acetyl]amino}-5,6-dihydro-4H-cyclopenta[b]thiophene-3-carboxylate]",,,,Testing Result % inhibition at indicated concentration (3 uM): 69% at 3 uM
"CC(C)OC(=O)c1c(-c2ccc(Cl)c(Cl)c2)csc1NC(=O)CN1CCCCC1 [dd, isopropyl 4-(3,4-dichlorophenyl)-2-[(piperidin-1-ylacetyl)amino]thiophene-3-carboxylate]",,,0-9% at 25 uM,
"CCOC(=O)c1c(-c2ccc(C)cn2)csc1NC(=O)CN1CCCCC1 [r, ethyl 4-(5-methylpyridin-2-yl)-2-[(piperidin-1-ylacetyl)amino]thiophene-3-carboxylate]",42%,26%,,
"CCOC(=O)c1c(NC(=O)CN2CCC2)sc2c1CCCC2 [i, ethyl 2-[(azetidin-1-ylacetyl)amino]-4,5,6,7-tetrahydro-1-benzothiophene-3-carboxylate]",,,28% at 25 uM,
"CCOC(=O)c1c(NC(=O)CN2CCCCC2)sc(Cl)c1-c1ccccc1 [l, ethyl 5-chloro-4-phenyl-2-[(piperidin-1-ylacetyl)amino]thiophene-3-carboxylate]",,,35% at 25 uM,
"CC(C)OC(=O)c1c(NC(=O)CN2CCCCC2)sc2c1CCCC2 [cc, isopropyl 2-[(piperidin-1-ylacetyl)amino]-4,5,6,7-tetrahydro-1-benzothiophene-3-carboxylate]",,,34-54% at 25 uM,
"CCOC(=O)c1c(NC(=O)CN2CCCCCC2)sc2c1CCC2 [k, ethyl 2-[(azepan-1-ylacetyl)amino]-5,6-dihydro-4H-cyclopenta[b]thiophene-3-carboxylate]",,,77-70% at 25 uM,
"CCOC(=O)c1c(NC(=O)C(C)N2CCCCC2)sc2c1CCCC2 (stereo not shown) [o, ethyl 2-[(2-piperidin-1-ylpropanoyl)amino]-4,5,6,7-tetrahydro-1-benzothiophene-3-carboxylate]",46-73%,38-40%,,
"CCOC(=O)c1c(NC(=O)CN2CCCC(O)C2)sc2c1CCCC2 (stereo not shown) [gg, ethyl 2-{[(3-hydroxypiperidin-1-yl)acetyl]amino}-4,5,6,7-tetrahydro-1-benzothiophene-3-carboxylate]",,,68-73% at 25 uM,
CCOC(=O)C1=C(NC(=O)CN2CCCCC2)SC2CCCCCC12 (stereo not shown) [C],82%,53%,,
"CCCOC(=O)c1c(NC(=O)CN2CCCCC2)sc2c1CCCC2 [y, propyl 2-[(piperidin-1-ylacetyl)amino]-4,5,6,7-tetrahydro-1-benzothiophene-3-carboxylate]",52-65%,33-54%,,
"CCOC(=O)c1c(-c2ccco2)csc1NC(=O)CN1CCCCC1 [t, ethyl 4-(2-furyl)-2-[(piperidin-1-ylacetyl)amino]thiophene-3-carboxylate]",70-75%,24-40%,,
"CCOC(=O)c1c(NC(=O)CN2CCCCC2)sc2c1CCC(C(C)(C)C)C2 (stereo not shown) [n, ethyl 6-tert-butyl-2-[(piperidin-1-ylacetyl)amino]-4,5,6,7-tetrahydro-1-benzothiophene-3-carboxylate]",,,13% at 25 uM,
"CCOC(=O)c1c(NC(=O)CN2CCC(O)CC2)sc2c1CCCC2 [ff, ethyl 2-{[(4-hydroxypiperidin-1-yl)acetyl]amino}-4,5,6,7-tetrahydro-1-benzothiophene-3-carboxylate]",,,31-34% at 25 uM,
"CCOC(=O)c1c(NC(=O)CN2CCCC2)sc2c1CCCC2 [g, ethyl 2-[(pyrrolidin-1-ylacetyl)amino]-4,5,6,7-tetrahydro-1-benzothiophene-3-carboxylate]",,,68-75% at 25 uM,
